Reference: ChEMBL document CHEMBL1127721, “EPSP synthase inhibitor design IV. New aromatic substrate analogs and symmetrical inhibitors containing novel 3-phosphate mimics” (Bioorg Med Chem Lett, 1994)

What follows are molecules tested against T1, 3-phosphoshikimate 1-carboxyvinyltransferase (Escherichia coli K-12, UniProt P0A6D3) (assay: Inhibition of Escherichia coli EPSP synthase). Details: not given.
T1 sequence (P0A6D3 whole entry): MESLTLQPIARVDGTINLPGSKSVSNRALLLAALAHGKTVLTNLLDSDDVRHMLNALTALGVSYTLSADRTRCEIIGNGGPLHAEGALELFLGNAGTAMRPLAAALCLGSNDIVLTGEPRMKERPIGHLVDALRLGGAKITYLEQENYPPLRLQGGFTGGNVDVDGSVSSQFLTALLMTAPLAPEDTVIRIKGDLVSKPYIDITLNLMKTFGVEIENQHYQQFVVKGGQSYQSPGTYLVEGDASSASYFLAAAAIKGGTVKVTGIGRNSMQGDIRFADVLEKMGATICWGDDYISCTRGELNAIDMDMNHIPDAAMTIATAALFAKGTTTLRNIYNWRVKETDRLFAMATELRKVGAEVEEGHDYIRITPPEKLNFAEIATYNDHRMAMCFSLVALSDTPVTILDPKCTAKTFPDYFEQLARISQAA

IC50 | Ki | Compound
10000 µM |  | O=C(O)c1cc(O)cc(OC(C(=O)O)C(=O)O)c1
> 80000 µM |  | O=C(O)c1cc(O)cc(CP(=O)(O)O)c1
210 µM |  | O=C(O)c1cc(OC(C(=O)O)C(=O)O)cc(OC(C(=O)O)C(=O)O)c1
7900 µM |  | O=C(O)c1cc(O)cc(OP(=O)(O)O)c1
2000 µM |  | O=C(O)COc1cc(OC(C(=O)O)C(=O)O)cc(C(=O)O)c1
1400 µM |  | O=C(O)COc1cc(OP(=O)(O)O)cc(C(=O)O)c1
100 µM | 1.5 µM | O=C(O)CO[C@@H]1CC(C(=O)O)=C[C@@H](OP(=O)(O)O)[C@@H]1O
3000 µM |  | O=C(O)c1cc(CP(=O)(O)O)cc(CP(=O)(O)O)c1
85 µM |  | O=C(O)c1cc(OP(=O)(O)O)cc(OP(=O)(O)O)c1
10000 µM |  | O=C(O)COc1cc(CP(=O)(O)O)cc(C(=O)O)c1
20 µM | 0.16 µM | O=C(O)c1cc(OC(C(=O)O)P(=O)(O)O)cc(OP(=O)(O)O)c1 (stereo not drawn)
10000 µM |  | O=C(O)COc1cc(C(=O)O)cc(P(=O)(O)O)c1

Compound | IC50 | Ki
O=C(O)c1cc(O)cc(C(O)P(=O)(O)O)c1 (stereo not drawn) | 10000 µM | 
O=C(O)COc1cc(C(=O)O)cc(C(O)P(=O)(O)O)c1 (stereo not drawn) | 3000 µM | 

Same assay, conditions: read-out: Ki app

Ki | Compound
2.5 µM | O=C(O)c1cc(OC(C(=O)O)C(=O)O)cc(OC(C(=O)O)C(=O)O)c1
0.78 µM | O=C(O)c1cc(OP(=O)(O)O)cc(OP(=O)(O)O)c1
